target: HPK1 (Homo sapiens (Human), UniProt Q92918); assay: HPK1 Lantha binding assay ("Lanth"); conditions: binding assays; Morrison Ki fit
Outline: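 TR-FRET binding competition using 2 nM HPK1, 2 nM Eu-anti-GST antibody and 15 nM Tracer222 at 23 °C. Compound was incubated 1 h with enzyme and antibody, then 1 h after tracer addition, with an 11-point 5-fold dilution series. Ki obtained from a Morrison fit that corrects for tracer concentration and Kd.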

HPK1, sequence (Q92918 1-346 limits assumed): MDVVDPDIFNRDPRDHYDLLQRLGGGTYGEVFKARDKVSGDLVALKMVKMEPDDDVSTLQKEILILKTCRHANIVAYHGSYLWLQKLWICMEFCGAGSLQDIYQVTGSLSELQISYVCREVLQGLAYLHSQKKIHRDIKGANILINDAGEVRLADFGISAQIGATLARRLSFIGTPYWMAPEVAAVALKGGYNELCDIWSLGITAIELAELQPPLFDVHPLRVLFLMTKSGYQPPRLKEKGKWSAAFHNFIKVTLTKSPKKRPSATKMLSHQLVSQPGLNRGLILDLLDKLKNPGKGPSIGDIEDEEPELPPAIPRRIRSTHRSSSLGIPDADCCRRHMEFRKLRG

Compound | Ki [nM]
N#CCNC(=O)c1ccnc(-c2cccc(-c3cnc4c(c3Cl)C3(CC=CC3)CN4)c2F)c1 [Compound 269, 2-(3-(4′-Chloro-1′,2′-dihydrospiro[cyclopentane-1,3′-pyrrolo[2,3-b]pyridin]-3-en-5′-yl)-2-fluorophenyl)-N-(cyanomethyl)isonicotinamide] | 191
CN(CC#N)C(=O)C1(c2cccc(-c3cnc4c(c3Cl)C3(CC=CC3)CN4)c2)CC1 [Compound 270, 1-(3-(4′-Chloro-1′,2′-dihydrospiro[cyclopentane-1,3′-pyrrolo[2,3-b]pyridin]-3-en-5′-yl)phenyl)-N-(cyanomethyl)-N-methylcyclopropane-1-carboxamide] | 331
CN(C)C(=O)c1c(N)ccc(-c2cnc3c(c2Cl)[C@]2(CC[C@@H](S(C)(=O)=O)CC2)CN3)c1F [Compound 273a, 6-Amino-3-((1r,4r)-4′-chloro-4-(methylsulfonyl)-1′,2′-dihydrospiro[cyclohexane-1,3′-pyrrolo[2,3-b]pyridin]-5′-yl)-2-fluoro-N,N-dimethylbenzamide] | 44.8
Clc1c(-c2ccc3[nH]nnc3c2)cnc2c1C1(CC=CC1)CN2 [Compound 276, 5′-(1H-Benzo[d][1,2,3]triazol-5-yl)-4′-chloro-1′,2′-dihydrospiro[cyclopentane-1,3′-pyrrolo[2,3-b]pyridin]-3-ene] | 252
O=C1OCc2ccc(-c3cnc4c(c3)C3(CC3)CN4)cc21 [Compound 277, 6-(1′,2′-dihydrospiro[cyclopropane-1,3′-pyrrolo[2,3-b]pyridin]-5′-yl)isobenzofuran-1(3H)-one] | 342
CCC1(O)C(=O)Nc2ccc(-c3cnc4c(c3)C3(CC3)CN4)cc21 (stereo not shown) [Compound 278, 5-(1′,2′-dihydrospiro[cyclopropane-1,3′-pyrrolo[2,3-b]pyridin]-5′-yl)-3-ethyl-3-hydroxyindolin-2-one] | 281
CC1(C#N)C(=O)Nc2ccc(-c3cnc4c(c3)C3(CC3)CN4)cc21 (stereo not shown) [Compound 279, 5-(1′,2′-dihydrospiro[cyclopropane-1,3′-pyrrolo[2,3-b]pyridin]-5′-yl)-3-methyl-2-oxoindoline-3-carbonitrile] | 41.8
O=C1Nc2ccc(-c3cnc4c(c3Cl)C3(CC3)CN4)cc2C1(O)C1CC1 (stereo not shown) [Compound 280, 5-(4′-chloro-1′,2′-dihydrospiro[cyclopropane-1,3′-pyrrolo[2,3-b]pyridin]-5′-yl)-3-cyclopropyl-3-hydroxyindolin-2-one] | 179
CC1(C(N)=O)C(=O)Nc2ccc(-c3cnc4c(c3Cl)C3(CC3)CN4)cc21 (stereo not shown) [Compound 281, 5-(4′-chloro-1′,2′-dihydrospiro[cyclopropane-1,3′-pyrrolo[2,3-b]pyridin]-5′-yl)-3-methyl-2-oxoindoline-3-carboxamide] | 144
CC1(C#N)C(=O)Nc2ccc(-c3cnc4c(c3Cl)C3(CC3)CN4)cc21 (stereo not shown) [Compound 282, 5-(4′-chloro-1′,2′-dihydrospiro[cyclopropane-1,3′-pyrrolo[2,3-b]pyridin]-5′-yl)-3-methyl-2-oxoindoline-3-carbonitrile] | 217
Clc1c(-c2cccc3[nH]ccc23)cnc2c1C1(CC=CC1)CN2 [Compound 284, 4-Chloro-5′-(1H-indol-4-yl)-1′,2′-dihydrospiro[cyclopentane-1,3′-pyrrolo[2,3-b]pyridin]-3-ene] | 629
Clc1c(-c2ccc3[nH]ncc3c2)cnc2c1C1(CC=CC1)CN2 [Compound 285, 4-Chloro-5′-(1H-indazol-5-yl)-1′,2′-dihydrospiro[cyclopentane-1,3′-pyrrolo[2,3-b]pyridin]-3-ene] | 375
Clc1c(-c2cccc3[nH]ncc23)cnc2c1C1(CC=CC1)CN2 [Compound 286, 4-Chloro-5′-(1H-indazol-4-yl)-1′,2′-dihydrospiro[cyclopentane-1,3′-pyrrolo[2,3-b]pyridin]-3-ene] | 120
Clc1c(-c2ccc3[nH]ccc3c2)cnc2c1C1(CC=CC1)CN2 [Compound 287, 4-Chloro-5′-(1H-indol-5-yl)-1′,2′-dihydrospiro[cyclopentane-1,3′-pyrrolo[2,3-b]pyridin]-3-ene] | 638
CN(C)C(=O)c1nc(-c2cnc3c(c2Cl)[C@]2(CC[C@](C)(C#N)C2)CN3)ccc1N [Compound 288, 3-Amino-6-((1R,3 S)-4′-chloro-3-cyano-3-methyl-1′,2′-dihydrospiro[cyclopentane-1,3′-pyrrolo[2,3-b]pyridin]-5′-yl)-N,N-dimethylpicolinamide] | 16
Nc1cc(-c2cnc3c(c2)C2(CC2)CN3)nc(N2CCCOC2=O)n1 [Compound 289, 3-(4-amino-6-(1′,2′-dihydrospiro[cyclopropane-1,3′-pyrrolo[2,3-b]pyridin]-5′-yl)pyrimidin-2-yl)-1,3-oxazinan-2-one] | 215
Nc1ccc(-c2cnc3c(c2)C2(CC2)CN3)nc1C(=O)N1CC[C@H](O)C1 [Compound 290a, (S)-(3-amino-6-(1′,2′-dihydrospiro[cyclopropane-1,3′-pyrrolo[2,3-b]pyridin]-5′-yl)pyridin-2-yl)(3-hydroxypyrrolidin-1-yl)methanone] | 559

Compound | Ki [nM]
Nc1ccc(-c2cnc3c(c2)C2(CC2)CN3)nc1C(=O)N1CC[C@@H](O)C1 [Compound 290b, (R)-(3-amino-6-(1′,2′-dihydrospiro[cyclopropane-1,3′-pyrrolo[2,3-b]pyridin]-5′-yl)pyridin-2-yl)(3-hydroxypyrrolidin-1-yl)methanone] | 895
CN(C)C(=O)CNc1ccc(-c2cnc3c(c2)C2(CC2)CN3)cn1 [Compound 291, 2-((5-(1′,2′-dihydrospiro[cyclopropane-1,3′-pyrrolo[2,3-b]pyridin]-5′-yl)pyridin-2-yl)amino)-N,N-dimethylacetamide] | 236
Nc1cc(-c2cnc3c(c2)C2(CC2)CN3)nc(N2CCOC2=O)c1 [Compound 292, 3-(4-amino-6-(1′,2′-dihydrospiro[cyclopropane-1,3′-pyrrolo[2,3-b]pyridin]-5′-yl)pyridin-2-yl)oxazolidin-2-one] | 127
Nc1cc(-c2cnc3c(c2)C2(CC2)CN3)nc(N2CCCOC2=O)c1 [Compound 293, 3-(4-amino-6-(1′,2′-dihydrospiro[cyclopropane-1,3′-pyrrolo[2,3-b]pyridin]-5′-yl)pyridin-2-yl)-1,3-oxazinan-2-one] | 47.4
CN(C)C(=O)c1cc(N)cc(-c2cnc3c(c2)C2(CC2)CN3)n1 [Compound 294, 4-amino-6-(1′,2′-dihydrospiro[cyclopropane-1,3′-pyrrolo[2,3-b]pyridin]-5′-yl)-N,N-dimethylpicolinamide] | 309
Nc1cc(-c2cnc3c(c2)C2(CC2)CN3)nc(-c2ncccn2)c1 [Compound 295, 2-(1′,2′-dihydrospiro[cyclopropane-1,3′-pyrrolo[2,3-b]pyridin]-5′-yl)-6-(pyrimidin-2-yl)pyridin-4-amine] | 387
Cn1cccc(-c2cc(-c3cnc4c(c3Cl)C3(CC3)CN4)cc(N)n2)c1=O [Compound 296, 6-amino-4-(4′-chloro-1′,2′-dihydrospiro[cyclopropane-1,3′-pyrrolo[2,3-b]pyridin]-5′-yl)-1′-methyl-[2,3′-bipyridin]-2′(1′H)-one] | 11.4
CN(C)C(=O)c1cccc2c(-c3cnc4c(c3)C3(CC3)CN4)c[nH]c12 [Compound 297, 3-(1′,2′-Dihydrospiro[cyclopropane-1,3′-pyrrolo[2,3-b]pyridin]-5′-yl)-N,N-dimethyl-1H-indole-7-carboxamide] | 57.6
CN(C)C(=O)c1cccc2c(-c3cnc4c(c3Cl)C3(CC3)CN4)c[nH]c12 [Compound 298, 3-(4′-Chloro-1′,2′-dihydrospiro[cyclopropane-1,3′-pyrrolo[2,3-b]pyridin]-5′-yl)-N,N-dimethyl-1H-indole-7-carboxamide] | 52.3
O=C1CCCCN1c1cccc2c(-c3cnc4c(c3)C3(CC3)CN4)c[nH]c12 [Compound 299, 1-(3-(1′,2′-Dihydrospiro[cyclopropane-1,3′-pyrrolo[2,3-b]pyridin]-5′-yl)-1H-indol-7-yl)piperidin-2-one] | 88.9
O=C1CCCCN1c1cccc2c(-c3cnc4c(c3Cl)C3(CCC(O)C3)CN4)c[nH]c12 (stereo not shown) [Compound 300, 1-(3-(4′-Chloro-3-hydroxy-1′,2′-dihydrospiro[cyclopentane-1,3′-pyrrolo[2,3-b]pyridin]-5′-yl)-1H-indol-7-yl)piperidin-2-one] | 50.6
CN(C)C(=O)Cc1cccc2c(-c3cnc4c(c3Cl)C3(CC3)CN4)c[nH]c12 [Compound 301, 2-(3-(4′-Chloro-1′,2′-dihydrospiro[cyclopropane-1,3′-pyrrolo[2,3-b]pyridin]-5′-yl)-1H-indol-7-yl)-N,N-dimethylacetamide] | 68.2
O=C1COCCN1c1cccc2c(-c3cnc4c(c3Cl)C3(CC3)CN4)c[nH]c12 [Compound 302, 4-(3-(4′-Chloro-1′,2′-dihydrospiro[cyclopropane-1,3′-pyrrolo[2,3-b]pyridin]-5′-yl)-1H-indol-7-yl)morpholin-3-one] | 46.3
O=C1CNCCN1c1cccc2c(-c3cnc4c(c3)C3(CC3)CN4)c[nH]c12 [Compound 303, 1-(3-(1′,2′-Dihydrospiro[cyclopropane-1,3′-pyrrolo[2,3-b]pyridin]-5′-yl)-1H-indol-7-yl)piperazin-2-one] | 32.6
N#Cc1ccc2[nH]cc(-c3cnc4c(c3)C3(CC3)CN4)c2c1 [Compound 307, 3-(1′,2′-Dihydrospiro[cyclopropane-1,3′-pyrrolo[2,3-b]pyridin]-5′-yl)-1H-indole-5-carbonitrile] | 17.2
Cc1n[nH]cc1-c1cnc2c(c1Cl)C1(CC=CC1)CN2 [Compound 308, 4′-Chloro-5′-(3-methyl-1H-pyrazol-4-yl)-1′,2′-dihydrospiro[cyclopentane-1,3′-pyrrolo[2,3-b]pyridin]-3-ene] | 186
COc1c(-c2ccc(N)c(C(=O)N(C)C)n2)cnc2c1C1(CC1)CN2 [Compound 309, 3-Amino-6-(4′-methoxy-1′,2′-dihydrospiro[cyclopropane-1,3′-pyrrolo[2,3-b]pyridin]-5′-yl)-N,N-dimethylpicolinamide] | 29

From patent US12208088B2 (Genentech, Inc., priority 2018, dated 2025)
